This note sets out measurements from patent US20260262643A1, “HERBICIDAL BENZOXAZINES” (FMC CORPORATION, priority 2022, published 2026).

For one test, the system named is horseweed. The experiment in a line: Test A postemergence. The class given is in vivo, Erigeron canadensis. The conditions noted are these: postemergence, 10 days; for pest or weed control at 125 g/ha / pest or weed control at 500 g/ha: Erigeron canadensis, post-emergence, 240 h; for pest or weed control at 125 g/ha: read-out: Horseweed plant response rating; for pest or weed control at 500 g/ha: read-out: Plant response rating, Horseweed. The method, boiled down:
(§1)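 Weeds and crops in loam–sand blend were sprayed preemergence onto soil or postemergence at 2–10 cm (one- to two-leaf stage). Test chemicals were in a non-phytotoxic solvent with surfactant. After 10 days in the greenhouse, injury was rated visually against untreated controls on a 0 (no effect) to 100 (complete control) scale.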

The next test concerns rice. In words: Test B flooded paddy test. The class given is in vivo, Oryza sativa. The conditions noted are these: 250 g ai/ha, Flood, 13 days, 0 to 100 scale (0 no effect, 100 complete control); for plant injury at 250 g/ha: Oryza sativa, 312 h, read-out: Plant response rating, Rice. In short, it runs like this:
(§2)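 Species grown to 2-leaf stage; pots flooded 3 cm above soil and compound applied directly to paddy water, depth maintained throughout. After 13 days in greenhouse, plants visually rated against controls on 0–100 scale (0 no effect, 100 complete control); dash means no result.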

In test [1] the test system is blackgrass. In words: Test A postemergence. The format is in vivo, Alopecurus myosuroides. Conditions: postemergence, 10 days; for pest or weed control at 125 g/ha / pest or weed control at 500 g/ha: Alopecurus myosuroides, post-emergence, 240 h; for pest or weed control at 125 g/ha / Blackgrass plant response rating: 125 g ai/ha; for pest or weed control at 125 g/ha / pest or weed control at 500 g/ha / Plant response rating, Blackgrass: 0 to 100 scale (0 no effect, 100 complete control); for pest or weed control at 125 g/ha: read-out: Blackgrass plant response rating; for pest or weed control at 500 g/ha / Plant response rating, Blackgrass: 500 g ai/ha, visual injury; for pest or weed control at 500 g/ha: read-out: Plant response rating, Blackgrass; for Blackgrass plant response rating: 0 to 100 scale, 0 no effect, 100 complete control. The method, boiled down: as §1

A further test concerns barnyardgrass. In words: Test B flooded paddy test. The class given is in vivo, Echinochloa crus-galli. Conditions: 250 g ai/ha, Flood, 13 days, 0 to 100 scale (0 no effect, 100 complete control); for pest or weed control at 250 g/ha: Echinochloa crus-galli, 312 h, read-out: Plant response rating, Barnyardgrass. In short, it runs like this:
as §2

Another test deals with oat, wild. In words: Test A preemergence. The conditions noted are these: 0 to 100 scale; for pest or weed control at 125 g/ha / pest or weed control at 500 g/ha: Avena fatua, pre-emergence, 240 h, read-out: Plant response rating, Oat, Wild. The format is in vivo, Avena fatua. The method, boiled down:
as §1

Test [2] relates to kochia. The experiment in a line: Test A postemergence. The conditions noted are these: postemergence, 10 days; for pest or weed control at 125 g/ha / pest or weed control at 500 g/ha: Bassia scoparia, post-emergence, 240 h; for pest or weed control at 125 g/ha: read-out: Kochia plant response rating; for pest or weed control at 500 g/ha: read-out: Plant response rating, Kochia. The class given is in vivo, Bassia scoparia. In short, it runs like this: as §1

The subject of another test is foxtail, giant. The experiment in a line: Test A preemergence. The format is in vivo, Setaria faberi. Conditions: 0 to 100 scale; for pest or weed control at 125 g/ha / pest or weed control at 500 g/ha: Setaria faberi, pre-emergence, 240 h, read-out: Plant response rating, Foxtail, Giant. In short, it runs like this: as §1
The subject of another test is ducksalad. In words: Test B flooded paddy test. The class given is in vivo, Heteranthera limosa. The conditions noted are these: 250 g ai/ha, Flood, 13 days, 0 to 100 scale (0 no effect, 100 complete control); for pest or weed control at 250 g/ha: Heteranthera limosa, 312 h, read-out: Plant response rating, Ducksalad. The method, boiled down:
as §2

In test [3] the test system is kochia. In words: Test A preemergence. The class given is in vivo, Bassia scoparia. The conditions noted are these: 0 to 100 scale; for pest or weed control at 125 g/ha / pest or weed control at 500 g/ha: Bassia scoparia, pre-emergence, 240 h, read-out: Plant response rating, Kochia. The method, boiled down: as §1
Test [4] has as its system blackgrass. In words: Test A preemergence. The class given is in vivo, Alopecurus myosuroides. The conditions noted are these: 0 to 100 scale; for pest or weed control at 125 g/ha / pest or weed control at 500 g/ha: Alopecurus myosuroides, pre-emergence, 240 h, read-out: Plant response rating, Blackgrass. The method, boiled down: as §1
The next test concerns corn. In words: Test A postemergence. The class given is in vivo, Zea mays. Conditions: postemergence, 10 days; for plant injury at 125 g/ha / Corn plant response rating (crop injury, 0 = no effect, 100 = complete kill) at 500 g/ha: Zea mays, post-emergence, 240 h; for plant injury at 125 g/ha: read-out: Corn plant response rating. In short, it runs like this:
as §1

For another test, the system named is ryegrass, Italian. The experiment in a line: Test A preemergence. The class given is in vivo, Lolium multiflorum. Conditions: 0 to 100 scale; for pest or weed control at 125 g/ha / pest or weed control at 500 g/ha: Lolium multiflorum, pre-emergence, 240 h, read-out: Plant response rating, Ryegrass, Italian. In short, it runs like this:
as §1

The next test has as its system pigweed, palmer. In words: Test A postemergence. The class given is in vivo, Amaranthus palmeri. Conditions: postemergence, 10 days; for pest or weed control at 125 g/ha / pest or weed control at 500 g/ha: Amaranthus palmeri, post-emergence, 240 h; for pest or weed control at 125 g/ha: read-out: Pigweed, Palmer plant response rating; for pest or weed control at 500 g/ha: read-out: Plant response rating, Pigweed, Palmer. In short, it runs like this:
as §1

Where [5] appears, read: 125 g ai/ha, 0 to 100 scale (0 no effect, 100 complete control).
Setting [6] is: 500 g ai/ha, visual injury, 0 to 100 scale (0 no effect, 100 complete control).
The mark [7] stands for this setting: 500 g ai/ha, visual injury after 10 days, 0 is no effect, 100 is complete control.
[8] abbreviates: 125 g ai/ha, 0 to 100 scale, 0 no effect, 100 complete control.

As to `C[C@H]1CN(C(=S)c2cccc(-n3cncn3)c2)c2cccc(Cl)c2O1` [Compound 139, [(2S)-8-Chloro-2,3-dihydro-2-methyl-4H-1,4-benzoxazin-4-yl][3-(1H-1,2,4-triazol-1-yl)phenyl]methanethione], the pest or weed control at 125 g/ha with horseweed (setting [5]) turned out to be 0%; in the test on blackgrass [1], 80%; with oat, wild (125 g ai/ha), 20%; in the test on kochia [2] (setting [5]), 50%; with foxtail, giant (125 g ai/ha), 90%; with kochia [3] (125 g ai/ha), 0%. Moreover, the pest or weed control at 125 g/ha with blackgrass [4] (125 g ai/ha) came to 70%; in the test on ryegrass, Italian (125 g ai/ha), 50%; in the test on pigweed, palmer (setting [5]), 40%. The pest or weed control at 500 g/ha with horseweed (setting [6]) was found to be 0%; with blackgrass [1], 90%; with oat, wild (setting [7]) it was 90%; in the test on kochia [2] (setting [6]) it was 80%; in the test with foxtail, giant (setting [7]) it was 100%; in the test with kochia [3] (setting [7]), 0%. Besides, the pest or weed control at 500 g/ha in the test with blackgrass [4] (setting [7]) stood at 90%; in the test on ryegrass, Italian (setting [7]), 80%; with pigweed, palmer (setting [6]), 80%. The plant injury at 250 g/ha with rice is 0%. Moreover, the pest or weed control at 250 g/ha came out at 15% in the test on barnyardgrass and 75% with ducksalad. For the same molecule, the plant injury at 125 g/ha in the test with corn (setting [5]) is 40%. This molecule also had a Corn plant response rating (crop injury, 0 = no effect, 100 = complete kill) at 500 g/ha in the test on corn (setting [6]) of 60%.
Take `CC(C)c1ncn(-c2cc(C(=O)N3C[C@H](C)Oc4c(Cl)cccc43)c3ccccc3c2)n1` [Compound 146]: the “Plant response rating, Horseweed” value in the test on horseweed (setting [6]) came to 0. Besides, the pest or weed control at 125 g/ha was 0% in the test with horseweed (setting [5]); 0% with oat, wild (125 g ai/ha); 80% in the test on kochia [2] (setting [5]); 80% in the test with foxtail, giant (125 g ai/ha); 30% in the test with ryegrass, Italian (125 g ai/ha); 70% with pigweed, palmer (setting [5]). In addition, the “Plant response rating, Rice” value in the test on rice worked out at 0. For the same molecule, the “Blackgrass plant response rating” value in the test with blackgrass [1] came out at 10. For the same molecule, the figures for the “Plant response rating, Blackgrass” value in the test on blackgrass [1], with blackgrass [4] (125 g ai/ha) and with blackgrass [4] (setting [7]) were 20, 70 and 90, respectively. Besides, in the test with barnyardgrass, the “Plant response rating, Barnyardgrass” value turned out to be 0. For the same molecule, the “Plant response rating, Oat, Wild” value in the test on oat, wild (setting [7]) came to 20. Also, the figures for the “Plant response rating, Kochia” value in the test with kochia [2] (setting [6]), in the test with kochia [3] (125 g ai/ha) and in the test on kochia [3] (setting [7]) were 90, 10 and 30, respectively. Besides, the “Plant response rating, Foxtail, Giant” value with foxtail, giant (setting [7]) was 100. For the same molecule, in the test with ducksalad, the “Plant response rating, Ducksalad” value was 0. Moreover, in the test on corn (setting [6]), the “Plant response rating, Corn” value stood at 30. The plant injury at 125 g/ha in the test with corn (setting [5]) turned out to be 10%. In the test on ryegrass, Italian (setting [7]), the “Plant response rating, Ryegrass, Italian” value is on record as 70. In addition, the “Plant response rating, Pigweed, Palmer” value in the test with pigweed, palmer (setting [6]) amounted to 70.
As for `CC(C)c1ncn(-c2cc(C(=O)N3C[C@H](C)Oc4c(Cl)cccc43)c3ccccc3c2)n1` [Compound 145], in the test on horseweed (setting [8]), the “Horseweed plant response rating” value was found to be 0. Moreover, the pest or weed control at 500 g/ha turned out to be 0% in the test with horseweed (setting [6]); 80% in the test on kochia [2] (setting [6]); 80% in the test with foxtail, giant (setting [7]); 50% in the test on kochia [3] (setting [7]); 80% in the test with blackgrass [4] (setting [7]); 90% in the test with ryegrass, Italian (setting [7]). The pest or weed control at 500 g/ha in the test with pigweed, palmer (setting [6]) is 90%. Further, the plant injury at 250 g/ha in the test with rice stood at 0%. Moreover, in the test on blackgrass [1], the “Blackgrass plant response rating” value is on record as 40. In addition, the “Plant response rating, Blackgrass” value in the test with blackgrass [1] was 70; in the test with blackgrass [4] (125 g ai/ha), 40. For the same molecule, in the test on barnyardgrass, the “Plant response rating, Barnyardgrass” value came to 45. For the same molecule, the “Plant response rating, Oat, Wild” value was 0 with oat, wild (125 g ai/ha) and 50 in the test on oat, wild (setting [7]). Further, the “Kochia plant response rating” value in the test with kochia [2] (setting [8]) is on record as 70. Moreover, the “Plant response rating, Foxtail, Giant” value with foxtail, giant (125 g ai/ha) was found to be 70. Besides, the “Plant response rating, Ducksalad” value with ducksalad was 40. Moreover, the “Plant response rating, Kochia” value in the test with kochia [3] (125 g ai/ha) was found to be 70. Moreover, in the test with corn (setting [8]), the “Corn plant response rating” value is reported as 10. Also, the Corn plant response rating (crop injury, 0 = no effect, 100 = complete kill) at 500 g/ha in the test with corn (setting [6]) was 20%. Also, in the test with ryegrass, Italian (125 g ai/ha), the “Plant response rating, Ryegrass, Italian” value came out at 40. In the test with pigweed, palmer (setting [8]), the “Pigweed, Palmer plant response rating” value is given as 70.
As to `CC(C)c1ncn(-c2cc3c(c(C(=O)N4C[C@H](C)Oc5c(Cl)cccc54)c2)OCC3)n1` [Compound 147], the pest or weed control at 125 g/ha in the test on horseweed (setting [5]) amounted to 0%; with blackgrass [1] it was 70%; with oat, wild (125 g ai/ha), 20%; in the test on kochia [2] (setting [5]) it was 60%; in the test with kochia [3] (125 g ai/ha), 70%; in the test on blackgrass [4] (125 g ai/ha), 20%. For the same molecule, the pest or weed control at 125 g/ha in the test on ryegrass, Italian (125 g ai/ha) came out at 90%; in the test with pigweed, palmer (setting [5]) it was 80%. Also, the pest or weed control at 500 g/ha with horseweed (setting [6]) came out at 0%; in the test with blackgrass [1], 100%; in the test on oat, wild (setting [7]), 90%; with kochia [2] (setting [6]), 90%; in the test with kochia [3] (setting [7]), 90%; in the test on blackgrass [4] (setting [7]), 90%. Besides, the pest or weed control at 500 g/ha was 100% in the test with ryegrass, Italian (setting [7]) and 90% with pigweed, palmer (setting [6]). Besides, the plant injury at 250 g/ha in the test on rice was 0%. In addition, the pest or weed control at 250 g/ha in the test on barnyardgrass and in the test with ducksalad was 0% each time. Moreover, the plant injury at 125 g/ha in the test with corn (setting [5]) is 10%. For the same molecule, the Corn plant response rating (crop injury, 0 = no effect, 100 = complete kill) at 500 g/ha in the test with corn (setting [6]) worked out at 90%.
